For assay [1], the target named is T1, laminin/nidogen interaction (laminin P1, recombinantly produced human nidogen) (Homo sapiens, UniProt P14543).
T1 construct: made in house; host or cells: HEK-293
T1 sequence (P14543 29-1247): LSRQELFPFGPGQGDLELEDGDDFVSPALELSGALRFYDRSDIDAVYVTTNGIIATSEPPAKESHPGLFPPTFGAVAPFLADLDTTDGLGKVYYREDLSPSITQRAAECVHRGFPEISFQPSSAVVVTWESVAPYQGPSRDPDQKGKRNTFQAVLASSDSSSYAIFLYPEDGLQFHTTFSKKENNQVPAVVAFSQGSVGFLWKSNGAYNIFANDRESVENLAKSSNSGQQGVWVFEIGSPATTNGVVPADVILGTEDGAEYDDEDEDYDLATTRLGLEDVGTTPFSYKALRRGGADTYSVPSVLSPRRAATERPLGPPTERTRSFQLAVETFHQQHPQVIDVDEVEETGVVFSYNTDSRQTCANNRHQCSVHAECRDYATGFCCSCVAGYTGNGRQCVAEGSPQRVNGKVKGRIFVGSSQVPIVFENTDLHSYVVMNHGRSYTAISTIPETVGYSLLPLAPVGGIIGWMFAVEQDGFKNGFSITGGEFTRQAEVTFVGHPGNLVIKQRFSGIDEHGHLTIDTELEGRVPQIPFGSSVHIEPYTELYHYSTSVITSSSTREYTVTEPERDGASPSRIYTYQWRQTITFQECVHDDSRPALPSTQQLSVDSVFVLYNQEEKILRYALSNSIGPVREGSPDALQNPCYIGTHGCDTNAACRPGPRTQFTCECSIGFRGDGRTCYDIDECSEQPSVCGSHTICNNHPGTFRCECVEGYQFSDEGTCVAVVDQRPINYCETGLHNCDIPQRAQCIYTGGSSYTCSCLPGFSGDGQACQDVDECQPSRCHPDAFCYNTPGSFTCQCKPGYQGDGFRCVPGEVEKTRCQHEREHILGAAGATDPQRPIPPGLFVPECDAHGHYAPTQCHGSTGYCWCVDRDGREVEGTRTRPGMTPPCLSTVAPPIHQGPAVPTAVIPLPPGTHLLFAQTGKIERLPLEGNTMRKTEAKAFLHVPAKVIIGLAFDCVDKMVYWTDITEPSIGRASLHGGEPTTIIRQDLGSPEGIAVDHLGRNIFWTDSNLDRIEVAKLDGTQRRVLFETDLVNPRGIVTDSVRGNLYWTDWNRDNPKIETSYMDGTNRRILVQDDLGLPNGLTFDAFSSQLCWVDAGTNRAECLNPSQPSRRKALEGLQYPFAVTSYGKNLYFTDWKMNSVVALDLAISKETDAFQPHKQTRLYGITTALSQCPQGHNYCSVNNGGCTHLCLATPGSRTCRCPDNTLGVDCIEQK
The assay is described as follows: HTS screening assay (time-resolved fluorescence), inhibition of laminin/nidogen binding. The protocol:
5) The compound stocks were preincubated with nidogen (10 μl compound stock to 90 μl nidogen solution) and the assay was performed as described in the attached protocol, yielding a final screening concentration of 2.7 μM per compound. The isolation of laminin P1 from human placenta, human nidogen from transfected HEK-293 cells and mouse laminin γ1III 3-5 from HEK-293 cells is described in WO 98/31709. 3.1.1. HTS screening assay (highly sensitive assay variant): Time-Resolved Fluorescence Assay Coating of test tubes Microtiter plates (for example FluoroNunc®) were coated with 75 μl of a 0.1 μg/ml solution of laminin P1 (in 0.159 g of Na2CO3, 0.293 g of NaHCO3, 0.02 g of NaN3/liter, pH 9.2) at room temperature for 1 hour. The solution was then tipped off, and free binding sites were blocked by incubation with 0.5% BSA (in 7.9 g of NaCl, 1.2 g of Na2HPO4, 0.31 g of KCl, 0.23 g of NaH2PO4, 0.04% Tween 20/liter, pH 7.2) at room temperature for 0.5 hour. Completion of the blocking reaction was followed by decantation of the solution and washing once with 250 μl of washing buffer (PBS/0.04% Tween). Sequential inhibition In parallel with the coating, a preincubation of 85-100 μl of a 0.25 nM nidogen solution (recombinantly produced human nidogen) with inhibitor or standard was carried out in a separate reaction vessel (1 hour at room temperature in 7.9 g of NaCl, 1.2 g of Na2HPO4, 0.31 g of KCl, 0.23 g of NaH2PO4, 0.04% Tween 20/liter, 0.5% BSA, pH 7.2). 75 μl of the preincubation (nidogen+inhibitor or standard) were transferred into the coated wells of the microtiter plate and incubated at room temperature for 1 hour. This was followed by washing twice with PBS/0.04% Tween. Detection of the bound nidogen took place by incubation (at room temperature) for 1 hour with 75 μl of a specific antibody preparation obtained from yolks of eggs from a chicken immunized with human nidogen. The IgY fraction was used in a dilution of 1:500 in PBS/0.04% Tween. The complex of nidogen and specifically bound antibodies was, after washing twice with PBS/0.04% Tween, detected by adding anti-chicken IgY-biotin (75 μl of a 1:2500 dilution; Promega, Madison, Wis. 53711, 608-274-4330). An incubation time of 1 hour and washing twice with PBS/0.04% Tween were followed for this purpose by incubation with streptavidin-europium (Wallac; 1 hour at room temperature) and washing twice with PBS/0.04% Tween. It was finally possible, after adding 100 μl of enhancement solution (Wallac) and shaking for 5 minutes, to measure a fluorescence signal in a Victor multilabel counter using the europium protocol. The relation between the amount, of bound nidogen in the solutions with inhibitor and that of nidogen without added inhibitor was found.

The target of assay [2] is T2, laminin/nidogen association (Homo sapiens, UniProt P14543).
T2 sequence (P14543 29-1247): T1 sequence (P14543 29-1247)
The experiment in a line: Three-day equilibrium assay, inhibition of laminin/nidogen association. The following applies: Table 2, 3-day equilibrium assay variant. In kind it is binding. An excerpt: 3.1.2. Three-day equilibrium assay Selected inhibitors were investigated for inhibitory activity in this assay variant. The assay is described in U.S. Pat. No. 5,493,008. The following table compares IC50 values of selected substances with the results of the HTS screening assay. It is clear that the 3-day assay gives slightly lower measured values and, as expected, is more sensitive than the screening assay. However, it is also clear from the comparison that inhibitory structures can be identified reliably with the screening assay developed by us.

Where [3] appears, read: Table 2, HTS assay variant, read-out: IC50, HTS assay.
[4] abbreviates: results table 1.3, synthesized compounds 1 to 43, read-out: IC50.

Like-named read-outs stand apart in the source and are kept apart here. Starred links: 1 amine or outer side, 2 acyl side, 3 side chain; linkers in the order of their positions; H or OH if unused. Non-standard residues stand in square brackets, D forms with d. Residues, ends and D or L forms follow the SMILES beside them. No end group written: not given here. ξ: configuration not given here. *: point of attachment. Bip = N[C@@H](Cc1ccc(-c2ccccc2)cc1)C(=O)O; 2Nal = N[C@@H](Cc1ccc2ccccc2c1)C(=O)O; NH(3-hydroxypropyl) = OCCCN*; Suc = O=C(CCC(=O)[*:2])[*:1]; Tle = CC(C)(C)[C@H](N)C(=O)O; ξN = NC(=O)CC(N)C(=O)O; Bn = c1ccc(C*)cc1

By IC50 is commonly meant the concentration at which inhibition is half-maximal. As to `CC(C)[C@H](NC(=O)[C@H](CO)NC(=O)[C@H](CC(N)=O)NC(=O)[C@H](Cc1ccc2ccccc2c1)NC(=O)CCC(=O)O)C(=O)NCC(=O)NCCCO` [Compound 24, Succinyl-L-3-(2-naphthyl)alanyl-L-asparaginyl-L-seryl-L-valyl-glycine-3-hydroxypropylamide] (Suc-[2Nal]NSVG-{NH(3-hydroxypropyl)}), the IC50 was determined as 360 nM in assay [1] (setting [3]), 390 nM in assay [1] (setting [4]) and 90 nM in assay [2]. With `CC(C)[C@H](NC(=O)[C@H](C)NC(=O)[C@H](CC(N)=O)NC(=O)[C@H](Cc1ccc2ccccc2c1)NC(=O)CCC(=O)O)C(=O)NCC(=O)NCCCO` [Compound 30, Succinyl-L-3-(2-naphthyl)alanyl-L-asparaginyl-L-alanyl-L-valyl-glycine-3-hydroxypropylamide] (Suc-[2Nal]NAVG-{NH(3-hydroxypropyl)}), the IC50 in assay [1] (setting [4]) was found to be 250 nM.

Turning to `CC(C)[C@H](NC(=O)[C@H](C)NC(=O)[C@H](CC(N)=O)NC(=O)[C@H](Cc1ccc2ccccc2c1)NC(=O)CCC(=O)O)C(N)=O` [Compound 31, Succinyl-L-3-(2-naphthyl)alanyl-L-asparaginyl-L-alanyl-L-valine-amide] (Suc-[2Nal]NAV-NH2), the figures for the IC50 in assay [1] (setting [3]), in assay [1] (setting [4]) and in assay [2] were 190 nM, 190 nM and 85 nM, respectively.

For `C[C@H](NC(=O)[C@H](CC(N)=O)NC(=O)[C@H](Cc1ccc2ccccc2c1)NC(=O)CCC(=O)O)C(=O)N[C@H](C(N)=O)C(C)(C)C` [Compound 32, Succinyl-L-3-(2-naphthyl)alanyl-L-asparaginyl-L-alanyl-L-2-tert.butyl-glycine-amide] (Suc-[2Nal]NA[Tle]-NH2), the IC50 in assay [1] (setting [4]) came to 170 nM.

For `CC(C)[C@H](NC(=O)CNC(=O)[C@H](CC(N)=O)NC(=O)[C@H](Cc1ccc2ccccc2c1)NC(=O)CCC(=O)O)C(N)=O` [Compound 33, Succinyl-L-3-(2-naphthyl)alanyl-L-asparaginyl-glycinyl-L-valine-amide] (Suc-[2Nal]NGV-NH2), in assay [1] (setting [4]), the concentration for half-maximal inhibition (IC50) came to 720 nM.

With `CC(C)[C@H](NC(=O)[C@H](C)NC(=O)[C@H](CC(N)=O)NC(=O)[C@H](Cc1ccc(OCc2ccccc2)cc1)NC(=O)CCC(=O)O)C(N)=O` [Compound 35, Succinyl-L-O-benzyl-tyrosyl-L-asparaginyl-L-alanyl-L-valine-amide] (Suc-Y(Bn)NAV-NH2), the IC50 in assay [1] (setting [4]) came out at 5020 nM. The same measure, in the same setting: as for `CC(C)[C@H](NC(=O)[C@H](C)NC(=O)[C@H](CC(N)=O)NC(=O)[C@H](Cc1ccc(-c2ccccc2)cc1)NC(=O)CCC(=O)O)C(N)=O` [Compound 36, Succinyl-L-3-(4-biphenyl)alanyl-L-asparaginyl-L-alanyl-L-valine-amide] (Suc-[Bip]NAV-NH2), the figure is 2830 nM; as for `CC(C)[C@H](NC(=O)[C@H](C)NC(=O)[C@H](CC(N)=O)NC(=O)[C@H](Cc1ccc2ccccc2c1)NC(=O)CCC(=O)O)C(=O)O` [Compound 37, Succinyl-L-3-(2-Naphthyl)alanyl-L-asparaginyl-L-alanyl-L-valine] (Suc-[2Nal]NAV-OH), 830 nM. As to `CC(C)[C@@H](CO)NC(=O)[C@H](C)NC(=O)[C@H](CC(N)=O)NC(=O)[C@H](Cc1ccc2ccccc2c1)NC(=O)CCC(=O)O` [Compound 38, Succinyl-L-3-(2-Naphthyl)alanyl-L-asparaginyl-L-alaninyl-L-valinol], in assay [1] (setting [4]), the IC50 is 260 nM. With `CC(C)C(NC(=O)[C@H](C)NC(=O)[C@H](CC(N)=O)NC(=O)[C@H](Cc1ccc2ccccc2c1)NC(=O)CCC(=O)O)C(C)C` [Compound 39, Succinyl-L-3-(2-Naphthyl)alanyl-L-asparaginyl-L-alanine-2,4-dimethylpentylamide], the IC50 in assay [1] (setting [4]) came to 1500 nM.

As for `C[C@H](NC(=O)[C@H](CC(N)=O)NC(=O)[C@H](Cc1ccc2ccccc2c1)NC(=O)CCC(=O)O)C(=O)NCC(C)(C)C` [Compound 40, Succinyl-L-3-(2-Naphthyl)alanyl-L-asparaginyl-L-alanine-neopentylamide], in assay [1] (setting [4]), the IC50 came to 1160 nM. The same measure, in the same setting: as for `C[C@H](NC(=O)[C@H](CC(N)=O)NC(=O)[C@H](Cc1ccc2ccccc2c1)NC(=O)CCC(=O)O)C(=O)N1CCCC(C)(C)C1` [Compound 41, Succinyl-L-3-(2-Naphthyl)alanyl-L-asparaginyl-L-alanine-3,3-dimethylpiperidinylamide], the figure is 8170 nM. Same read-out and setting: as for `CC(C)[C@H](NC(=O)[C@H](C)NC(=O)[C@H](CC(N)=O)NC(=O)[C@H](Cc1ccc2ccccc2c1)NC(=O)CCC(=O)O)C(=O)N(C)C` [Compound 42, Succinyl-L-3-(2-Naphthyl)alanyl-L-asparaginyl-L-alanyl-L-valine-dimethylamide] (Suc-[2Nal]NAV-NMe2), the figure is 240 nM. With `CC[C@H](C)[C@H](NC(=O)C(N)CC(N)=O)C(=O)N[C@@H](CC(=O)O)C(=O)N1CCC[C@H]1C(=O)N[C@@H](CC(N)=O)C(=O)N[C@@H](C)C(=O)N[C@H](C(=O)O)C(C)C` (stereo partly drawn) [NIDPNAV, Asn-lie-Asp-Pro-Asn-Ala-Val, reference compound] (H-[ξN]IDPNAV-OH), the IC50 in assay [1] (setting [3]) turned out to be 3900 nM; in assay [2] it was 1200 nM. DPNAV [DPNAV, reference compound]: the 50% inhibitory concentration (IC50) in assay [1] (setting [3]) was 7700 nM; in assay [2], 5000 nM.
